Assay results: patent US8580231B2, “Compositions and methods comprising magnetic resonance contrast agents” (Northwestern University, priority 2008, dated 2013)
“Also recorded” adds a separate entry of the source. Marks after values point to notes of the source that are not given here.

Columns and labels:
[1] = Biodistribution study (Gd(III) in organs by ICP-MS); assay type: in vivo, mouse; settings: mice, organs harvested 30 minute to 24 hour
[2] = system: PR(+) T47D and PR(−) MDA-MB-231 xenografted tumors; settings: previously reported (ref. 19); cited from earlier work
[3] = taken from Caravan et al.; cited from earlier work
[4] = target: T1, progesterone receptor A ligand binding domain (amino acids 675-933) fused to GST (PR-LBD-GST) (Homo sapiens, UniProt P06401); assay: Receptor binding to nPR (fluorescence polarization, Example 17)
T1 construct: purchased Invitrogen
T1 sequence (P06401 675-933): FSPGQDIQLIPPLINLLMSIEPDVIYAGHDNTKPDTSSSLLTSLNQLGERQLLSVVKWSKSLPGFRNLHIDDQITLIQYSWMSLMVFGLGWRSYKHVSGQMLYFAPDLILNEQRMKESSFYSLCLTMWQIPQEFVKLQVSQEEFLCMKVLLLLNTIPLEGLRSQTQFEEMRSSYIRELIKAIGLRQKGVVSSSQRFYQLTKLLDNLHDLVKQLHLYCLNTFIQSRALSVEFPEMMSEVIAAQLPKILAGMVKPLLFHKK

[5] = system: PR(+) (T47D) human breast cancer cells; assay: Cellular uptake studies (Example 17), PR(+) cells; assay type: cell-based; settings: 0.125 mM for 1, 4, 10, 24 h or 0.25-2 mM for 4 h
Procedure: Contrast agents were dissolved in the appropriate medium (containing stripped FBS) for each cell line (T47D and MDA-MB-231) at concentrations of 2, 1, 0.5, 0.25, and 0.125 mM of contrast agent. For concentration-dependent cellular uptake, cells were incubated with 2, 1, 0.5, and 0.25 mM of each contrast agent for 4 h. For the time dependent cellular uptake, cells were incubated with 0.125 mM contrast agent for 1, 4, 10, and 24 h. After incubation, the media was removed, and the cells were rinsed twice with PBS and trypsinized. An aliquot was used for cell counting and the remaining portion was analyzed for Gd(III) content by ICP-MS. Each condition was done in triplicate.
To determine the cell permeability of the compounds, PR(+) (T47D) and PR(−) (MDA-MB-231) human breast cancer cells were incubated with 1a, 2a, 3a, and 4a. Time- and concentration-dependent experiments were performed to identify the optimal dose and incubation times of the agents (FIG. 16).

[6] = system: PR(+) T47D and PR(−) MDA-MB-231 xenografted tumors; assay: In vivo MR imaging of xenografted nude mice (contrast-to-noise ratio); design: species or system mouse; settings: for change in tumor CNR over preinjection levels: 2 and 6 h postinjection; for change in tumor CNR over preinjection levels / CNR of PR(+) tumor compared to PR(−) tumor: intraperitoneal; for CNR of PR(+) tumor compared to PR(−) tumor: 0.15 mmGd/kg in DMSO
Procedure: Female Balb/C athymic nude mice were acquired from Harlan (Indianapolis, Ind.) and housed under pathogen free conditions. All animal studies were conducted at Northwestern University in accordance with the National Institutes of Health Guide for the Care and Use of Laboratory Animals and established institutional animal use and care protocols. Due to low circulating estradiol levels in nude mice, a 17β-estradiol pellet (Innovative Research of America, Sarasota, FA, 70-day release, 0.72 mg/pellet) was implanted subcutaneously in the nape of the neck to ensure growth of estrogen-dependent T47D cells. Two to seven days later, T47D and MDA-MB-231 ((1−2)×10^6) cells were suspended in Matrigel (1:1 volume) and injected subcutaneously into the rear flank (T47D cells on the right side and MDA-MB-231 cells on the left). Mice were monitored for tumor growth every two to three days after injection of cells. Mice were imaged two to three weeks after xenografting when tumors were palpable with a minimum weight of 20 mg (determined after tumor removal postimaging).
Xenografted nude mice were injected intraperitoneally (n=1 per compound) with each agent (0.15 mmGd/kg) dissolved in 50 μL, DMSO. During imaging, mice were maintained under anesthesia (1-3% isoflurane) but were allowed to wake up and recover between imaging time points. Tubing containing heated water was positioned under the mouse to keep a constant body temperature. All MR imaging was performed on a 89 mm bore size PharmaScan 7.05 T MR imager fitted with shielded gradient coils (Bruker BioSpin, Billerica, Mass., USA) using a RF RES 300 1H 089/038 quadrature transmit receive volume coil (Bruker BioSpin, Billerica, Mass., USA). […] Images were analyzed using ImageJ. Contrast-to-noise ratio (CNR) was calculated using the equation CNR=(SITissue−SImuscle)/σnoise where SITumor is the signal intensity in the tumor, SIMuscle is the signal intensity in the muscle, and σnoise is the standard deviation of the noise. CNRs were averaged over two to three axial slices in which the tumors were clearly demarcated.
To determine whether the water-soluble progesterone-conjugated agents would increase the contrast-to-noise ratio (CNR) of PR(+) tumors relative to PR(−) tumors in vivo, athymic nude mice with PR(+) and PR(−) xenografted tumors were injected intraperitoneally with 1a, 2a, or 3a dissolved in DMSO and imaged at 2 and 6 h postinjection. Intraperitoneal injection was chosen over subcutaneous injection because it yielded more consistent results in previous studies, and the parent compound, ProGlo, has been more extensively studied for its biodistribution after intraperitoneal injection. (19) In addition, while these agents are water-soluble, they were dissolved in DMSO to compare back to previous in vivo imaging with the insoluble ProGlo and the control agent 4a.(19)

[7] = system: PR / pPRE-luciferase in T47D cells; assay: Luciferase assay for nPR activation; assay type: cell-based, human; settings: 24 h
Procedure: T47D cells were grown in phenol-free medium, and cells were trypsinized and plated in 24-well plate (50 000 cells/well). Incubation of cells with the pPRE-luciferase plasmid (100 ng/well, construct provided by Dr. Ken Korach, NIEHS, NIH), RSV-β-galactosidase (100 ng/well, provided by Dr. William T. Beck, University of Illinois at Chicago), and Lipofectamine 2000 (1 μL per well, Invitrogen, Carlsbad, Calif.) in Opti-MEM was performed overnight at 37° C. inside a humidified incubator. The cells were treated with 1a, 2a, 3a, and 4a for an additional 24 h.
To measure luciferase production, cells were lysed in 100 μL GME buffer (25 mM glycylglycine at pH 7.8, 15 mM MgSO4, 4 mM EGTA, 1 mM dithiothreitol, and 1% Triton X-100) and lysates were added to assay buffer (GME buffer, 16.5 mM KPO4, 2.2 mM ATP, and 1.1 mM dithiothreitol). Luciferase substrate was injected followed by a 30 s read by a FLUOstar OPTIMA (BMG Lab Tech, Offenburg, Germany). LacZ activity (50 μL lysate) was measured from cleavage of ONPG. The sample results were normalized to β-galactosidase to account for transfection efficiency by dividing the sum of the luciferase activity by the sum of the β-galactosidase activity. Fold change was calculated by taking the luciferase value, dividing by the β-galactosidase activity, and then dividing by the solvent control, which was set equal to one. […]

tissue distribution of Gd(III) (percentage per gram of tissue) [1] | Compound | cellular Gd(III) uptake [5] | change in tumor CNR over preinjection levels [6] | CNR of PR(+) tumor compared to PR(−) tumor ([6]; 6 h postinjection) | further results
mainly end up in the liver and kidney | DO3A-Gd(III) | – | – | – | tumor CNR after injection [2]: only minimal increases in CNR over time
mainly end up in the liver and kidney | CCCCCCN1CCN(CC(=O)[O-])CCN(CC(=O)[O-])CCN(CC(=O)[O-])CC1.[Gd+3] [hexyl-DO3A-Gd(III)] | – | – | – | –
– | CC(O)CN1CCN(CC(=O)[O-])CCN(CC(=O)[O-])CCN(CC(=O)[O-])CC1.[Gd+3] (centres unmarked) [Prohance] | – | – | – | Relaxivity [3]: 3.7* mM^−1s^−1
– | {2,2′,2″-(10-(2-(((1-(5-(2-(10,13-Dimethyl-3-oxo-2,3,6,7,8,9,10,11,12,13,14,15,16,17-tetradecahydro-1H-cyclopenta[a]phenanthren-17-yl)-2-oxoethoxy)pentyl)-1H-1,2,3-triazol-4-yl)methyl)amino)-2-oxoethyl)-1,4,7,10-tetraazacyclododecane-1,4,7-triyl)triacetate}gadolinium [Compound 1a] | increased slightly after 1 h and then stabilized | several-fold increase in CNR; also recorded: increased CNR by 2 h, but CNR had decreased by 6 h | significantly higher CNR | RBA, fold less than that of progesterone [4]: about 100 fold; CNR of PR(+) tumor compared to PR(−) tumor ([6]; 2 h postinjection): significantly higher CNR; fold change in CNR in the PR(+) tumors, percent higher than with ProGlo ([6]; 2 h time point, compared to preinjection CNR): 16%
– | {2,2′,2″-((10-((1-(5-(2-(10,13-Dimethyl-3-oxo-2,3,6,7,8,9,10,11,12,13,14,15,16,17-tetradecahydro-1H-cyclopenta[a]phenanthren-17-yl)-2-oxoethoxy)pentyl)-1H-1,2,3-triazol-4-yl)methyl)-1,4,7,10-tetraazacyclododecane-1,4,7-triyl)triacetate}gadolinium [Compound 2a] | time-dependent accumulation | slow increase in CNR over time | significantly higher CNR | PRE-mediated transcription (luciferase activity) [7]: lowest efficacy
